The values that follow come from patent publication US20240041042A1, “1-(PYRIDYL)-5-AZINYLPYRAZOLE DERIVATIVES, AND THEIR USE FOR CONTROL OF UNDESIRED PLANT GROWTH” (Bayer Aktiengesellschaft, priority 2020, published 2024).

What all share (format): in vivo
Experiment [1] deals with Alopecurus myosuroides (ALOMY). As to the kind of experiment: Pre-emergence herbicidal action against ALOMY. The conditions noted are these: scored visually after about 3 weeks, 100% = plants have died. Put shortly:
(§1)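 Herbicide applied to soil before seedling emergence, at 600 l/ha spray volume with 0.5% additive and rates up to 320 g/ha. Evaluation: visual percentage effect, about 3 weeks later, greenhouse-grown pots compared with untreated ones.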

The subject of experiment [2] is Avena fatua (AVEFA). As to the kind of experiment: Pre-emergence herbicidal action against AVEFA. Conditions: visual scoring after about 3 weeks vs untreated controls. Put shortly: as §1
For experiment [3], the system named is Polygonum convolvulus (POLCO). In words: Pre-emergence herbicidal action against POLCO. Put shortly:
as §1

Experiment [4] deals with Verconica persica (VERPE). As to the kind of experiment: Pre-emergence herbicidal action against VERPE. The gist of the method:
as §1

Experiment [5] relates to Viola tricolor (VIOTR). As to the kind of experiment: Pre-emergence herbicidal action against VIOTR. Put shortly:
as §1

For experiment [6], the system named is Avena fatua (AVEFA). In words: Post-emergence herbicidal action against AVEFA. Conditions: visual rating about 3 weeks after treatment. Put shortly: (§2)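 Values are percent visual activity (0% like control, 100% plants dead) after about 3 weeks in the greenhouse. Treatment: post-emergence spray at one-leaf stage, 600 l/ha spray volume, 0.5% additive, doses 320 g/ha or lower.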

The test system of experiment [7] is Lolium rigidum (LOLRI). In words: Post-emergence herbicidal action against LOLRI. The gist of the method:
as §2

In experiment [8] the test system is Matricaria inodora (MATIN). In words: Post-emergence herbicidal action against MATIN. The gist of the method:
as §2

Experiment [9] has as its system Polygonum convolvulus (POLCO). As to the kind of experiment: Post-emergence herbicidal action against POLCO. The gist of the method:
as §2

Experiment [10] deals with Setaria viridis (SETVI). In words: Post-emergence herbicidal action against SETVI. The gist of the method:
as §2

As to `COC(=O)COc1nn(-c2ncccc2F)c(-c2ccc(F)nc2)c1Br` [Example I-07], the “Pre-emergence action against ALOMY” value is reported as 90% in [1] (80 g/ha) and 100% in experiment [1] (320 g/ha). In [2] (320 g/ha), the “Pre-emergence action against AVEFA in %” value was found to be 90%. Also, the “Pre-emergence action against POLCO in %” value came to 90% in [3] (dosage 80 g/ha) and 100% in experiment [3] (dosage 320 g/ha). Besides, the “Pre-emergence action against VERPE in %” value in [4] (dosage 320 g/ha) came to 100%. The “Pre-emergence action against VIOTR in %” value was found to be 100% in experiment [5] (320 g/ha, Viola tricolor) and 90% in [5] (dosage 80 g/ha). The “Post-emergence action against AVEFA in %” value in [6] (320 g/ha) is 90%. Further, in experiment [7] (dosage 320 g/ha), the “Post-emergence action against LOLRI in %” value is 90%. Besides, the “Post-emergence action against MATIN in %” value in experiment [8] (dosage 80 g/ha) was determined as 90%; in [8] (dosage 320 g/ha), 100%. Besides, the “Post-emergence action against POLCO in %” value in [9] (dosage 80 g/ha) and in [9] (dosage 320 g/ha) was 80% in each case. Besides, the “Post-emergence action against SETVI in %” value in [10] (dosage 80 g/ha) and in experiment [10] (dosage 320 g/ha) was 90% in each case.

Take `O=C(O)COc1nn(-c2ccccn2)c(-c2cncnc2)c1Br` [Example I-66]: the “Pre-emergence action against ALOMY” value in experiment [1] (80 g/ha) and in experiment [1] (320 g/ha) was 100% in each case. Further, the “Pre-emergence action against AVEFA in %” value in [2] (320 g/ha) is given as 90%. The “Pre-emergence action against POLCO in %” value in experiment [3] (dosage 80 g/ha) and in [3] (dosage 320 g/ha) was 90% each time. Besides, the “Pre-emergence action against VERPE in %” value in experiment [4] (dosage 320 g/ha) was 100%. Besides, the “Pre-emergence action against VIOTR in %” value stood at 100% in [5] (320 g/ha, Viola tricolor) and 90% in experiment [5] (dosage 80 g/ha). Further, the “Post-emergence action against AVEFA in %” value in [6] (320 g/ha) worked out at 100%. In addition, the “Post-emergence action against LOLRI in %” value in experiment [7] (dosage 320 g/ha) is reported as 90%. For the same compound, the “Post-emergence action against MATIN in %” value in experiment [8] (dosage 80 g/ha) was determined as 80%; in experiment [8] (dosage 320 g/ha), 90%. Further, the “Post-emergence action against POLCO in %” value in [9] (dosage 80 g/ha) is 80%; in experiment [9] (dosage 320 g/ha), 90%. Further, the entries for the “Post-emergence action against SETVI in %” value in [10] (dosage 80 g/ha) and in experiment [10] (dosage 320 g/ha) were 80% and 90%, respectively.

As for `CCOC(=O)COc1nn(-c2nc(F)ccc2F)c(-c2cncc(F)c2)c1Br` [Example I-193], in experiment [1] (320 g/ha), the “Pre-emergence action against ALOMY” value was found to be 90%. Also, in experiment [2] (320 g/ha), the “Pre-emergence action against AVEFA in %” value stood at 90%. Also, the “Pre-emergence action against POLCO in %” value is 80% in [3] (dosage 80 g/ha) and 100% in [3] (dosage 320 g/ha). Further, the “Pre-emergence action against VERPE in %” value is listed as 80% in experiment [4] (dosage 80 g/ha) and 90% in experiment [4] (dosage 320 g/ha). The “Pre-emergence action against VIOTR in %” value was 100% in experiment [5] (320 g/ha, Viola tricolor) and 100% in [5] (dosage 80 g/ha). Also, the “Post-emergence action against AVEFA in %” value in [6] (80 g/ha) worked out at 80%; in experiment [6] (320 g/ha), 90%. In [7] (dosage 320 g/ha), the “Post-emergence action against LOLRI in %” value came out at 90%. The “Post-emergence action against MATIN in %” value in [8] (dosage 320 g/ha) is given as 80%. Besides, the “Post-emergence action against POLCO in %” value in experiment [9] (dosage 80 g/ha) and in experiment [9] (dosage 320 g/ha) was 80% each time. Also, the “Post-emergence action against SETVI in %” value in [10] (dosage 320 g/ha) was 90%.

On to `C[C@@H](Oc1nn(-c2ncccc2F)c(-c2ccc(F)nc2)c1I)C(=O)O` [Example I-343], for which the “Pre-emergence action against ALOMY” value in experiment [1] (80 g/ha) and in [1] (320 g/ha) was 90% throughout. For the same compound, the “Pre-emergence action against AVEFA in %” value in [2] (80 g/ha) is on record as 80%; in experiment [2] (320 g/ha) it was 90%. Also, the results for the “Pre-emergence action against POLCO in %” value in experiment [3] (dosage 80 g/ha) and in experiment [3] (dosage 320 g/ha) were 90% and 100%, respectively. Further, in experiment [4] (dosage 320 g/ha), the “Pre-emergence action against VERPE in %” value came to 100%. The “Pre-emergence action against VIOTR in %” value in [5] (320 g/ha, Viola tricolor) amounted to 100%; in [5] (dosage 80 g/ha) it was 100%. For the same compound, the “Post-emergence action against AVEFA in %” value in [6] (80 g/ha) and in [6] (320 g/ha) was 80% throughout. Moreover, the “Post-emergence action against LOLRI in %” value in experiment [7] (dosage 320 g/ha) was 90%. Further, the “Post-emergence action against MATIN in %” value in experiment [8] (dosage 320 g/ha) was 80%. For the same compound, the “Post-emergence action against POLCO in %” value in experiment [9] (dosage 80 g/ha) and in experiment [9] (dosage 320 g/ha) was 80% each time. Moreover, the “Post-emergence action against SETVI in %” value in [10] (dosage 80 g/ha) and in experiment [10] (dosage 320 g/ha) was 90% each time.

As for `COC(=O)C(C)COC(=O)[C@@H](C)Oc1nn(-c2ccccn2)c(-c2cncc(F)c2)c1Br` (some centres unmarked) [Example I-188], the “Pre-emergence action against ALOMY” value in experiment [1] (80 g/ha) is 90%; in experiment [1] (320 g/ha), 100%. Further, the “Pre-emergence action against AVEFA in %” value in experiment [2] (80 g/ha) was 80%; in experiment [2] (320 g/ha), 90%. For the same compound, the “Pre-emergence action against POLCO in %” value in experiment [3] (dosage 80 g/ha) and in [3] (dosage 320 g/ha) was 90% each time. Moreover, the “Pre-emergence action against VERPE in %” value in experiment [4] (dosage 80 g/ha) and in experiment [4] (dosage 320 g/ha) was 100% each time. Also, the “Pre-emergence action against VIOTR in %” value in experiment [5] (320 g/ha, Viola tricolor) is 100%; in experiment [5] (dosage 80 g/ha) it was 100%. Besides, the “Post-emergence action against AVEFA in %” value in experiment [6] (80 g/ha) and in [6] (320 g/ha) was 80% throughout. Further, the “Post-emergence action against LOLRI in %” value in experiment [7] (dosage 80 g/ha) and in [7] (dosage 320 g/ha) was 90% throughout. Besides, the “Post-emergence action against MATIN in %” value in [8] (dosage 320 g/ha) is 80%. In addition, the “Post-emergence action against POLCO in %” value in [9] (dosage 80 g/ha) and in experiment [9] (dosage 320 g/ha) was 80% each time. Moreover, the “Post-emergence action against SETVI in %” value in [10] (dosage 80 g/ha) and in experiment [10] (dosage 320 g/ha) was 80% in each case.

With `CCOC(=O)[C@@H](C)Oc1nn(-c2ccccn2)c(-c2cncc(F)c2)c1Cl` [Example I-184], the figures for the “Pre-emergence action against ALOMY” value in experiment [1] (80 g/ha) and in experiment [1] (320 g/ha) were 90% and 100%, respectively. Besides, the “Pre-emergence action against AVEFA in %” value is 80% in experiment [2] (80 g/ha) and 90% in experiment [2] (320 g/ha). Moreover, the “Pre-emergence action against POLCO in %” value in experiment [3] (dosage 80 g/ha) and in [3] (dosage 320 g/ha) was 90% throughout. Also, the “Pre-emergence action against VERPE in %” value in [4] (dosage 80 g/ha) stood at 90%; in experiment [4] (dosage 320 g/ha) it was 100%. In addition, the “Pre-emergence action against VIOTR in %” value is recorded as 100% in [5] (320 g/ha, Viola tricolor) and 100% in [5] (dosage 80 g/ha). The “Post-emergence action against AVEFA in %” value is given as 80% in experiment [6] (80 g/ha) and 90% in experiment [6] (320 g/ha). For the same compound, the “Post-emergence action against LOLRI in %” value in experiment [7] (dosage 80 g/ha) and in experiment [7] (dosage 320 g/ha) was 90% throughout. Further, the “Post-emergence action against MATIN in %” value in experiment [8] (dosage 320 g/ha) came to 80%. Also, the “Post-emergence action against POLCO in %” value in experiment [9] (dosage 80 g/ha) and in experiment [9] (dosage 320 g/ha) was 80% throughout. The “Post-emergence action against SETVI in %” value in experiment [10] (dosage 80 g/ha) amounted to 80%; in experiment [10] (dosage 320 g/ha), 90%.

Take `CCOC(=O)COc1nn(-c2ccccn2)c(-c2ccc(F)nc2)c1Cl` [Example I-85]: the “Pre-emergence action against ALOMY” value in [1] (80 g/ha) was found to be 80%; in experiment [1] (320 g/ha), 90%. Besides, the “Pre-emergence action against AVEFA in %” value in experiment [2] (320 g/ha) was determined as 90%. Moreover, the “Pre-emergence action against POLCO in %” value in experiment [3] (dosage 320 g/ha) came to 100%. In addition, the “Pre-emergence action against VERPE in %” value in experiment [4] (dosage 80 g/ha) and in [4] (dosage 320 g/ha) was 100% in each case. In addition, the “Pre-emergence action against VIOTR in %” value in [5] (320 g/ha, Viola tricolor) was 100%; in experiment [5] (dosage 80 g/ha) it was 100%. Further, the “Post-emergence action against AVEFA in %” value in [6] (320 g/ha) is recorded as 100%. Also, the “Post-emergence action against LOLRI in %” value in experiment [7] (dosage 80 g/ha) and in experiment [7] (dosage 320 g/ha) was 100% each time. The “Post-emergence action against MATIN in %” value in [8] (dosage 80 g/ha) is 80%; in [8] (dosage 320 g/ha), 90%. Besides, the “Post-emergence action against POLCO in %” value in [9] (dosage 80 g/ha) and in experiment [9] (dosage 320 g/ha) was 90% in each case. Moreover, the “Post-emergence action against SETVI in %” value in experiment [10] (dosage 80 g/ha) came to 90%; in experiment [10] (dosage 320 g/ha), 100%.
